Reference: patent US20250092017A1, “2-PIPERIDYL OR 2-PYRAZOLYL SUBSTITUTED PYRIMIDINE COMPOUND SERVING AS EGFR INHIBITOR” (SUZHOU PUHE BIOPHARMA CO., LTD., priority 2022, published 2025)

How the values were obtained:
Type in all cases: cell-based
[1] = molecular target: T1, Ba/F3-TEL-EGFR-L858R-C797S (Homo sapiens, UniProt P00533, C797S/L858R, cells depend on it); assay: CellTiter-Glo proliferation, Ba/F3-TEL-EGFR-L858R-C797S; conditions: 72 hours, read-out: Ba/F3-TEL-EGFR-L858R-C797S IC50/nM
T1 construct: fused on or other part: N-terminal TEL (ETV6) oligomerising part fused to the EGFR intracellular/kinase part; P41212 (Transcription factor ETV6)
Procedure: (§1) Promega CellTiter-Glo reagent was used to detect the effects of small molecule inhibitors on the proliferation of five Ba/F3 cell lines (Ba/F3-FL-EGFR, Ba/F3-FL-EGFR-L858R, Ba/F3-FL-EGFR-L858R-T790M-C797S, Ba/F3-TEL-EGFR-L858R-C797S and Ba/F3-FL-EGFR-del19-C797S).
(§2) The cell lines were cultured in an incubator at 37° C. and 5% CO2. Cells were passaged regularly and cells in the logarithmic phase were used for plating. 95 μL of cell suspension was added to each well of the cell plate, and culture medium without cells (containing 0.1% DMSO) was added to the Min control wells. Substance addition for compound detection cell plate: 5 μL of 20× compound working solution was added to the cell culture plate as shown in the table below. 50 μL of DMSO-cell culture medium mixture was added to the Max control, with the final DMSO concentration of 0.1%. 5 μL of DMSO-cell culture medium mixture was added to the Max control. The final DMSO concentration was 0.1%.
(§3) The compounds to be tested were added as per the table below
(§4) Cell viability was detected by CellTiter-Glo luminescence assay. Data analysis:
(§5) The cell proliferation inhibition rate (Inhibition Rate) data was processed using the following formula: […]
(§6) wherein: RLUDrug represents the relative luminescence unit of the cells with the addition of drug, RLUMin represents the luminescence unit of the culture medium, and RLUMax represents the relative luminescence unit of the cells with the addition of DMSO.
(§7) The inhibition rates corresponding to different concentrations of compounds were calculated in EXCEL, and then the inhibition rate curve was plotted using GraphPad Prism software and related parameters including the maximum and minimum inhibition rates of cells and IC50 values were calculated.

Ba/F3-FL-EGFR = molecular target: T2, Ba/F3-FL-EGFR (Homo sapiens, UniProt P00533); assay: CellTiter-Glo proliferation, Ba/F3-FL-EGFR; conditions: 72 hours, read-out: Ba/F3-FL-EGFR IC50/nM
T2 construct: FL read as full length
Procedure: as §1, §2, §3, §4, §5, §6, §7

[2] = system: Ba/F3-FL-EGFR-del19-C797S; assay: CellTiter-Glo proliferation, Ba/F3-FL-EGFR-del19-C797S; conditions: 72 h, proliferation, 72 hours, CellTiter-Glo; read-out: Ba/F3-FL-EGFR-del19-C797S IC50/nM
Procedure: as §1, §2, §3, §4, §5, §6, §7

Ba/F3-FL-EGFR-L858R = Ba/F3-FL-EGFR-L858R (Homo sapiens, UniProt P00533, L858R, cells depend on it); assay: CellTiter-Glo proliferation, Ba/F3-FL-EGFR-L858R; conditions: 72 hours, read-out: Ba/F3-FL-EGFR-L858R IC50/nM
Procedure: as §1, §2, §3, §4, §5, §6, §7

[3] = molecular target: Ba/F3-FL-EGFR-L858R-T790M-C797S (Homo sapiens, UniProt P00533, T790M/C797S/L858R, cells depend on it); assay: CellTiter-Glo proliferation, Ba/F3-FL-EGFR-L858R-T790M-C797S; conditions: 72 hours, read-out: Ba/F3-FL-EGFR-L858R-T790M-C797S IC50/nM
Procedure: as §1, §2, §3, §4, §5, §6, §7

T2 sequence (P00533 whole entry, change not shown): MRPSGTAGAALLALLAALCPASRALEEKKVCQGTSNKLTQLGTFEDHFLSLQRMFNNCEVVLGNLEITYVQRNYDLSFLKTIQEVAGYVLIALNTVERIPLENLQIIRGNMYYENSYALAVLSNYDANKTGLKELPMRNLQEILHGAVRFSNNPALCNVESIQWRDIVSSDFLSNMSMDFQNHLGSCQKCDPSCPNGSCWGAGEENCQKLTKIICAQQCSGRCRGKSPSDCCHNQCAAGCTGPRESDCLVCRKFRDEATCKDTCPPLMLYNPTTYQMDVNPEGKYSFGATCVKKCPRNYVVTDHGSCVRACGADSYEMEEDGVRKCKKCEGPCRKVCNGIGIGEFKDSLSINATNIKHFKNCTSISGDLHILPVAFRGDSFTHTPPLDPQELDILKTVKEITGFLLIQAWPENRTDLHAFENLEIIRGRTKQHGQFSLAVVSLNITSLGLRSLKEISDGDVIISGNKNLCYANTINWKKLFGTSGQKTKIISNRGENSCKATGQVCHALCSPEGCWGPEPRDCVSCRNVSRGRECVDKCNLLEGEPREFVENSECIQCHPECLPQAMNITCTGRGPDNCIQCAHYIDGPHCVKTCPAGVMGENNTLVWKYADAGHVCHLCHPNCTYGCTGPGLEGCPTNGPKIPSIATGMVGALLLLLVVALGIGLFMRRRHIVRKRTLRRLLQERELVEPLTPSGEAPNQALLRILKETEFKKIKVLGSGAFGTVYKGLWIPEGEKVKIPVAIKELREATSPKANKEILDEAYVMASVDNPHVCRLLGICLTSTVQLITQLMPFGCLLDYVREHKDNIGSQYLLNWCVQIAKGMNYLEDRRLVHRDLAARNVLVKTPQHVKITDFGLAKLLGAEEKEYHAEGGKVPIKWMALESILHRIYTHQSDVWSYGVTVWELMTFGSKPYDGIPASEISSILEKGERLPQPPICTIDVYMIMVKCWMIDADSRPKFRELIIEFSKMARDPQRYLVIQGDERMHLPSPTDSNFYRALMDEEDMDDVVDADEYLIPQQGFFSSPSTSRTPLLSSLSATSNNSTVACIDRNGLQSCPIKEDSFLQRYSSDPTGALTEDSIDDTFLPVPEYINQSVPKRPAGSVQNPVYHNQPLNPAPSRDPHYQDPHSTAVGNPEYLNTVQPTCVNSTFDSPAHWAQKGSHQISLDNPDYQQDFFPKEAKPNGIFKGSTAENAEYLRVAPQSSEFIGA
Sequence of Ba/F3-FL-EGFR-L858R-T790M-C797S (P00533 whole entry T790M/C797S/L858R): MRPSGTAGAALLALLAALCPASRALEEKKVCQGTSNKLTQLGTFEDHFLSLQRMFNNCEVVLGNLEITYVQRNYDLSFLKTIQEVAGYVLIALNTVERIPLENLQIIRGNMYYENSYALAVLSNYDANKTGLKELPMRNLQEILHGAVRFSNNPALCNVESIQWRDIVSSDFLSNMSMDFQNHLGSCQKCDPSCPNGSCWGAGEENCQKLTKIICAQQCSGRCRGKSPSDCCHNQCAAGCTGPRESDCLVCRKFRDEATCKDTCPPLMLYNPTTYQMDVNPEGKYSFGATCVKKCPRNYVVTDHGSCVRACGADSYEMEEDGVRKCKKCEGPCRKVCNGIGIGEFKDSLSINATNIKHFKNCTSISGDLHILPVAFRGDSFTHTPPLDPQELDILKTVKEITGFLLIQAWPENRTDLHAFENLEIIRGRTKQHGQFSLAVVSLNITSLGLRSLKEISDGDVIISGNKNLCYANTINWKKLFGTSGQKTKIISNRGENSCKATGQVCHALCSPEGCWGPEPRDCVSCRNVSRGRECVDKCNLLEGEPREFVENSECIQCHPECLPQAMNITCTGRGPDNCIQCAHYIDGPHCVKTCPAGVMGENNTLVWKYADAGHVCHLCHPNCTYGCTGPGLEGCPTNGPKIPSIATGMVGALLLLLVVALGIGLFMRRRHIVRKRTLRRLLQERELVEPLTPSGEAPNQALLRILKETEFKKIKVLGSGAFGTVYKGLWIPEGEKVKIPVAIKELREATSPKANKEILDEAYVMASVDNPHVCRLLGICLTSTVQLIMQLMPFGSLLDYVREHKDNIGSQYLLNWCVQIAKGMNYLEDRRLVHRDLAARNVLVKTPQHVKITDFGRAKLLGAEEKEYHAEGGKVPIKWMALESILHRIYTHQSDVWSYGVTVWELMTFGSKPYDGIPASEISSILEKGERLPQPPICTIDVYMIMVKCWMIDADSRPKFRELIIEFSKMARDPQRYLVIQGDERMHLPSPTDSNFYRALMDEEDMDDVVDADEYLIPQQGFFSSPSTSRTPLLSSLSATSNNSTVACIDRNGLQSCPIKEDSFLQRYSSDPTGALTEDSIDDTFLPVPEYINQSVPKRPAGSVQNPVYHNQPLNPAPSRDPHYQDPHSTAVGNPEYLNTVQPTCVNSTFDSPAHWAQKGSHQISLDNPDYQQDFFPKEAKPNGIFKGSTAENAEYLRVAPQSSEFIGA
T1 sequence (P00533 whole entry C797S/L858R, the tested form may be a part): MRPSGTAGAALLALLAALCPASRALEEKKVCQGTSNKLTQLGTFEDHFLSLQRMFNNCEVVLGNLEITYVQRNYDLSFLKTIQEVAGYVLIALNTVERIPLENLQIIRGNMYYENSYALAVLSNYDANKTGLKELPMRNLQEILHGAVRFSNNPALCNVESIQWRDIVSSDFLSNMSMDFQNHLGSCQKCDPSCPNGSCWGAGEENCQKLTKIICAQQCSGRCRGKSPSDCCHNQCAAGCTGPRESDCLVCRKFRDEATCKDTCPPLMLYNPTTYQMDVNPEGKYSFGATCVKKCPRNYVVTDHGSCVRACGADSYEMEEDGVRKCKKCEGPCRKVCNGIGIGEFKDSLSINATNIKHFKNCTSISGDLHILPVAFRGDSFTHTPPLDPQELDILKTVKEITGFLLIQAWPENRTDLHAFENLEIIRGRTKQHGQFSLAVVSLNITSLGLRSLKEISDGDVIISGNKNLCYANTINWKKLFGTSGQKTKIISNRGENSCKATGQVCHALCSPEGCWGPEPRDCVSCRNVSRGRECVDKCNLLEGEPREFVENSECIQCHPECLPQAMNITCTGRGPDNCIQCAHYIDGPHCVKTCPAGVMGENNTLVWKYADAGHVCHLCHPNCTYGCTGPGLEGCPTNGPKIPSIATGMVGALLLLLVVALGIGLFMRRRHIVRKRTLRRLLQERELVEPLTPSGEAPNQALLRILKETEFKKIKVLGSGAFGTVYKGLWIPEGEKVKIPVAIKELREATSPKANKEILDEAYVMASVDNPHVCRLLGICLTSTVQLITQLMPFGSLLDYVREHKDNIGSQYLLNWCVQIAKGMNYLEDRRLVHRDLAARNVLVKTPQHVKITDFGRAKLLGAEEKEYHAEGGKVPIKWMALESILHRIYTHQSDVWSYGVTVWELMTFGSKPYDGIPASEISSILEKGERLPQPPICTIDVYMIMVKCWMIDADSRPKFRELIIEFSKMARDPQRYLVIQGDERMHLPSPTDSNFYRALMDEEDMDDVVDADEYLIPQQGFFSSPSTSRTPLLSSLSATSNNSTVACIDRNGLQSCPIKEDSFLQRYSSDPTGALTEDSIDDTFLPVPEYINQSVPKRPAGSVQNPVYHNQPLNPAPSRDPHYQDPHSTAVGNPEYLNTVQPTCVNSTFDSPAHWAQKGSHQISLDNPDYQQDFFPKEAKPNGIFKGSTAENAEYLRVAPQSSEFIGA
Sequence of Ba/F3-FL-EGFR-L858R (P00533 whole entry L858R): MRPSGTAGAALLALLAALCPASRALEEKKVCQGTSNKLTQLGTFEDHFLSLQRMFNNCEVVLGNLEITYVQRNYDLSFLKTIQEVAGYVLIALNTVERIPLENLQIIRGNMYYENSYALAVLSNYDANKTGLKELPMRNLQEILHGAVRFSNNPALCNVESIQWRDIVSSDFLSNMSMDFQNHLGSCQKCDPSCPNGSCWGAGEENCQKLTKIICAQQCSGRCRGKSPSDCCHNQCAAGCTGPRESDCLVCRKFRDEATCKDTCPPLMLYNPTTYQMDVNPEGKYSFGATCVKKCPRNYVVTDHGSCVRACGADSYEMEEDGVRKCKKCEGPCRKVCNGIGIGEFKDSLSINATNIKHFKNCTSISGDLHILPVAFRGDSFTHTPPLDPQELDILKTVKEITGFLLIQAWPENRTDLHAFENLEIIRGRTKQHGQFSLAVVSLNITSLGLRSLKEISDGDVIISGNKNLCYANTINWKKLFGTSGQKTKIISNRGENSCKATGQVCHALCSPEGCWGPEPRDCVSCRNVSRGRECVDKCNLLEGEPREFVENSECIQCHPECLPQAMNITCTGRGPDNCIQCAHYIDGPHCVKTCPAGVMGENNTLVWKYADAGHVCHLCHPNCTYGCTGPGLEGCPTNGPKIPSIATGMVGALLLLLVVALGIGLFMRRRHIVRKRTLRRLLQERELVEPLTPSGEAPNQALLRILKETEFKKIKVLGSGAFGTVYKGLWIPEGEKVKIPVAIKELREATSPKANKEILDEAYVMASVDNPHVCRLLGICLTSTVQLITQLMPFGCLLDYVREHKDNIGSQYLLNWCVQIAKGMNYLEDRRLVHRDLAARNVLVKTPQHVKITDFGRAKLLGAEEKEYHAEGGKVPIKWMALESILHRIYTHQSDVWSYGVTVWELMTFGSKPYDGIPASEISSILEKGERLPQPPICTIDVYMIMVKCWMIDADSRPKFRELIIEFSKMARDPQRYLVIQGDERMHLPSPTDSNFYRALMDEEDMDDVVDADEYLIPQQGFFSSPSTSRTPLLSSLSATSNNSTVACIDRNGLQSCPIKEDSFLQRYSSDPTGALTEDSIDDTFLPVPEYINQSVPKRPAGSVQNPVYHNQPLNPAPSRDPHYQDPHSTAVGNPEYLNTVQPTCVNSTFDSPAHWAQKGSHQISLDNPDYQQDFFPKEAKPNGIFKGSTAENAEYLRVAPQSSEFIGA

Compound	GI50 [1]	GI50 (Ba/F3-FL-EGFR)	IC50 [2]	GI50 (Ba/F3-FL-EGFR-L858R)	GI50 [3]
COC1CCN(c2nccc(Nc3cc4c(C(C)C)ccc(N5CC(NS(=O)(=O)C6COC6)C5)c4cn3)n2)CC1F (stereo not drawn) [Compound P37]	33 nM	1140 nM	339 nM	83 nM	34 nM
CO[C@@H]1CCN(c2nccc(Nc3cc4c(C(C)C)ccc(N5C[C@H](N(C)S(C)(=O)=O)[C@H]5C)c4cn3)n2)C[C@@H]1F [Compound P40a]	5.8 nM	421 nM	53 nM	20 nM	2.5 nM
CCOCCS(=O)(=O)n1cc(-c2nccc(Nc3cc4c(C(C)C)ccc(N5C[C@H](CS(C)(=O)=O)[C@H]5C)c4cn3)n2)cn1 [Compound H22]	13 nM	229 nM	14 nM	17 nM	14 nM
CCS(=O)(=O)NC1CN(c2ccc(C(C)C)c3cc(Nc4ccnc(N5CCC(O)C(F)C5)n4)ncc23)C1 (stereo not drawn) [Compound P47]	38 nM	1610 nM	179 nM	113 nM	42 nM
[2H]C([2H])([2H])N([C@H]1CN(c2ccc(C(C)C)c3cc(Nc4ccnc(N5CCC(OC)C(F)C5)n4)ncc23)[C@@H]1C)S(C)(=O)=O (stereo partly drawn) [Compound P42]	6.6 nM	761 nM	90 nM	16 nM	5.8 nM
CC(C)c1ccc(N2CC(CS(C)(=O)=O)C2)c2cnc(Nc3ccnc(-c4cnn(C)c4)n3)cc12 [Compound H29]	34 nM	739 nM	59 nM	91 nM	235 nM
CC(C)c1ccc(N2C[C@H](CS(C)(=O)=O)[C@H]2C)c2cnc(Nc3ccnc(-c4cnn(S(=O)(=O)CCOC5CC5)c4)n3)cc12 [Compound H31]	55 nM	503 nM	39 nM	50 nM	64 nM
CCN(C1CN(c2ccc(C(C)C)c3cc(Nc4ccnc(N5CCC(OC)C(F)C5)n4)ncc23)C1)S(C)(=O)=O (stereo not drawn) [Compound P31]	19 nM	1460 nM	295 nM	86 nM	18 nM
CC(C)c1ccc(N2CC(CS(C)(=O)=O)C2)c2cnc(Nc3ccnc(-c4cnn(S(=O)(=O)CC5CC5)c4)n3)cc12 [Compound H14]	28 nM	721 nM	34 nM	71 nM	136 nM
CO[C@H]1CCN(c2nccc(Nc3cc4c(C(C)C)ccc(N5C[C@H](N(C)S(C)(=O)=O)[C@H]5C)c4cn3)n2)C[C@H]1F [Compound P40b]	5.9 nM	465 nM	81 nM	25 nM	4.8 nM
CC(C)c1ccc(N2CC(CS(C)(=O)=O)C2)c2cnc(Nc3ccnc(-c4cnn(S(=O)(=O)C5COC5)c4)n3)cc12 [Compound H17]	33 nM	858 nM	58 nM	56 nM	127 nM
COC1CCN(c2nccc(Nc3cc4c(C(C)C)ccc(N5CC(N(C)S(=O)(=O)C(F)(F)F)C5)c4cn3)n2)CC1F (stereo not drawn) [Compound P50]	542 nM	6620 nM	3510 nM	1890 nM	720 nM
CCCS(=O)(=O)N[C@H]1CN(c2ccc(C(C)C)c3cc(Nc4ccnc(N5CCC(OC)C(F)C5)n4)ncc23)[C@@H]1C (stereo partly drawn) [Compound P32]	16 nM	565 nM	123 nM	22 nM	8.9 nM
CCS(=O)(=O)N[C@H]1CN(c2ccc(C(C)C)c3cc(Nc4ccnc(N5CCC(OC)C(F)C5)n4)ncc23)[C@@H]1C (stereo partly drawn) [Compound P44]	10 nM	775 nM	110 nM	21 nM	6.7 nM
CC(C)c1ccc(N2CC(N(C)S(C)(=O)=O)C2)c2cnc(Nc3ccnc(N4CC[C@H](O)[C@H](F)C4)n3)cc12 [Compound P39b]	16 nM	760 nM	60 nM	24 nM	14 nM
